Patent publication US20210190775A1, “COMPOSITIONS AND METHODS FOR TAGGING AND DETECTING NUCLEIC ACIDS” (Nanoco Technologies Ltd., priority 2019, published 2021)

Experiments:
[1] = test system: DNA threads mounted on a glass slide; test: Detection of DNA mounted on a glass slide by fluorescence microscopy; format: binding; details: DNA 0.3 μg/mL, final dye concentration 0.4 mg/mL, 50× objective, DAPI filter cube
Experimental: The DNA binding and enhanced detection ability were also observed using trace amounts of DNA mounted on a glass slide. In this experiment, a DNA solution was prepared in DI water at 0.3 μg/mL and was mixed with the QD-fluorescent dye conjugate nanoparticles (Ex. 1) or with the Hoechst 33342 only (control experiment) at a final dye concentration of 0.4 mg/mL. A 3 μL solution of each composition was mounted on a slide, smeared and let to dry. The slide was then observed under a fluorescence microscope (Olympus BX51) using 50× objective and a DAPI filter cube (UMWU2) and equipped with an Osram HBO50W/AC L1 Short arc mercury lamp as an excitation source. […] All the images were taken using the same microscopy settings. FIG. 6 indicates an enhanced ability to detect DNA on a glass slide (zoomed in to show DNA strands covered with Hoechst-QDs).

[2] = test system: A431 human squamous cell carcinoma; test: Labelling of nuclear and cytoplasmic DNA or RNA in live cells; format: cell-based; details: conjugate 50 μg/mL or Hoechst 33342 0.2 μg/mL, 15h

Structure (SMILES): CCOc1ccc(-c2nc3cc(-c4nc5cc(N6CCN(C)CC6)ccc5[nH]4)ccc3[nH]2)cc1.Cl.Cl.Cl [Hoechst 33342, 2′-(4-ethoxyphenyl)-5-(4-methyl-1-piperazinyl)-2,5′-bi-1H-benzimidazole trihydrochloride]
- detection of DNA threads on glass slide [1]: almost no signal was observed
- labelling of cells (fluorescence microscopy) [2]: the nuclei were stained but without the ability to detect cell-cell communication
